Experimental findings from US8461328B2, “Tricyclic heterocyclic compounds, compositions and methods of use thereof” (Genentech, Inc., priority 2010, dated 2013) are described below.

Each structure is given as a SMILES string.

Common to all, as to type: biochemical
One assay deals with T1, JAK1 (Homo sapiens, UniProt P23458).
T1 construct: made in house; host or cells: SF9 insect cells (baculovirus)
Kind of assay: JAK1 inhibition (Table 4). To be noted: read-out: JAK1 Ki.

The target in the next assay is T2, JAK2 (Homo sapiens, UniProt O60674).
T2 construct: made in house; host or cells: SF9 insect cells (baculovirus)
The assay is described as follows: JAK2 inhibition (Table 4). The note with it: read-out: JAK2 Ki.

For the next assay, the target named is T3, JAK3 (Homo sapiens, UniProt P52333).
T3 construct: made in house; host or cells: SF9 insect cells (baculovirus)
The assay is described as follows: JAK3 inhibition (Table 4). The note with it: read-out: JAK3 Ki.

Another assay has as its target T4, TYK2 (Homo sapiens, UniProt P29597).
T4 construct: made in house; host or cells: SF9 insect cells (baculovirus)
T4 sequence (P29597 873-1187): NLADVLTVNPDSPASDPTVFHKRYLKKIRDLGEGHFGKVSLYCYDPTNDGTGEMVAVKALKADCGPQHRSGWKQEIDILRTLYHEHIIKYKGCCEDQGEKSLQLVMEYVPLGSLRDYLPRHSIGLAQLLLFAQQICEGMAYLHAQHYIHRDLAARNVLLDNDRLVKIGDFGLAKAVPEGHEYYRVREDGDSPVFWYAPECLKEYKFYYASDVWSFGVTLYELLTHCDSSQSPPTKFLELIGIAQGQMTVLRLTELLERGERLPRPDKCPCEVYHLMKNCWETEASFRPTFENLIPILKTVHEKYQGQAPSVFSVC
The assay is described as follows: TYK2 inhibition (Table 4).

T3 sequence (P52333 783-1124): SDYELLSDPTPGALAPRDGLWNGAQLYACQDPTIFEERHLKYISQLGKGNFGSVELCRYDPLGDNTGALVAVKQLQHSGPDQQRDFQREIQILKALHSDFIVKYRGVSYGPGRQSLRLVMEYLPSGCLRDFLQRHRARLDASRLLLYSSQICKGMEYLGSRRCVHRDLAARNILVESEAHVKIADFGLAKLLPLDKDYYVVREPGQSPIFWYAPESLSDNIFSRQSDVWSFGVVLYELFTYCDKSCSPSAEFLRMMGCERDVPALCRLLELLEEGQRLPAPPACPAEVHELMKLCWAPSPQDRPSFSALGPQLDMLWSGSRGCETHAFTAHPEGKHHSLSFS
T2 sequence (O60674 812-1132): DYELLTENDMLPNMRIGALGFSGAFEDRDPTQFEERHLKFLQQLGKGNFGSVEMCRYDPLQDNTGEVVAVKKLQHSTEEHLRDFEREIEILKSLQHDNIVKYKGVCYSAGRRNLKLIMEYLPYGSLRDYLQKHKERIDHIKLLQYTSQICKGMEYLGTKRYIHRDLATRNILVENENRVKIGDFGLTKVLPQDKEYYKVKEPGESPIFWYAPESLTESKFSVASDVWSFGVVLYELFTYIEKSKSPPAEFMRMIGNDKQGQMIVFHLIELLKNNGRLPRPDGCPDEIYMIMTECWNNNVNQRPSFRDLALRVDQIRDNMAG
T1 sequence (P23458 852-1154): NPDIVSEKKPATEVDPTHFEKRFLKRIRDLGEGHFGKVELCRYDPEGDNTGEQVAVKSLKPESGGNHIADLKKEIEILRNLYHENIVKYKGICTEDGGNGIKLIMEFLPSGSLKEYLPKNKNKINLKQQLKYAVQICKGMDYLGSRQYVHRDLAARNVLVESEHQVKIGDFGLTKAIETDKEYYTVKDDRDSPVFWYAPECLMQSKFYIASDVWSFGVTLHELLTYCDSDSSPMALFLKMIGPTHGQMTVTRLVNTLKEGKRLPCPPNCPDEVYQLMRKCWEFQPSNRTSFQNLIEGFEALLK

Usually Ki stands for the dissociation constant of the complex between target and ligand, obtained from inhibition or displacement. Regarding `CS(=O)(=O)NCc1nc2cnc3[nH]ccc3c2n1C1CCNCC1(F)F` (racemic) [Example 945, N-[1-(3,3-Difluoro-piperidin-4-yl)-1,6-dihydro-1,3,5,6-tetraaza-as-indacen-2-ylmethyl]-methanesulfonamide], the Ki on JAK1 was found to be 0.00319 µM; on JAK2 it was 0.035 µM; at JAK3 it was 0.0203 µM; at TYK2 it was 0.0325 µM.
The like results for `CS(=O)(=O)NCc1nc2cnc3[nH]ccc3c2n1C1CCN(Cc2ccccc2)CC1(F)F` (racemic) [Example 946, N-[1-(1-Benzyl-3,3-difluoro-piperidin-4-yl)-1,6-dihydro-1,3,5,6-tetraaza-as-indacen-2-ylmethyl]-methanesulfonamide] were, in that order, 0.00143 µM, 0.00965 µM, 0.0121 µM and 0.156 µM.
The like results for `OCc1nc2cnc3[nH]ccc3c2n1C1CCN(Cc2ccccc2)CC1(F)F` (racemic) [Example 947, [1-(1-Benzyl-3,3-difluoro-piperidin-4-yl)-1,6-dihydro-1,3,5,6-tetraaza-as-indacen-2-yl]-methanol] were, in that order, 0.00042 µM, 0.00129 µM, 0.00214 µM and 0.00563 µM.
For `OCc1nc2cnc3[nH]ccc3c2n1C1CCNCC1(F)F` (racemic) [Example 948, [1-(3,3-Difluoro-piperidin-4-yl)-1,6-dihydro-1,3,5,6-tetraaza-as-indacen-2-yl]-methanol], the Ki came out at 0.00123 µM at JAK1, 0.0136 µM on JAK2, 0.00595 µM at JAK3 and 0.00732 µM on TYK2.
In the case of `CN1CCCCCC1C(=O)N1CCC(n2cnc3cnc4[nH]ccc4c32)CC1` (racemic) [Example 953, (1-Methyl-azepan-2-yl)-[4-(6H-1,3,5,6-tetraaza-as-indacen-1-yl)-piperidin-1-yl]-methanone], the Ki on JAK1 stood at 0.0457 µM; on JAK2 it was 0.455 µM; at JAK3, 3.48 µM; on TYK2 it was 1.83 µM.
The corresponding values for `Cn1cc2c(n1)CCC(n1cnc3cnc4[nH]ccc4c31)C2` (racemic) [Example 956, 1-(2-Methyl-4,5,6,7-tetrahydro-2H-indazol-5-yl)-1,6-dihydro-1,3,5,6-tetraaza-as-indacene] are 0.0553 µM, 0.0898 µM, 0.41 µM and 0.282 µM.
The like results for `NC(=O)Cc1nc2cnc3[nH]ccc3c2n1C1CCCOC1` (racemic) [Example 960, 2-[1-(Tetrahydro-pyran-3-yl)-1,6-dihydro-1,3,5,6-tetraaza-as-indacen-2-yl]-acetamide] were, in that order, 0.0304 µM, 0.208 µM, 0.236 µM and 0.224 µM.
The corresponding values for `CNC(=O)Cc1nc2cnc3[nH]ccc3c2n1C1CCCOC1` (racemic) [Example 961, N-Methyl-2-[1-(tetrahydro-pyran-3-yl)-1,6-dihydro-1,3,5,6-tetraaza-as-indacen-2-yl]-acetamide] are 0.0456 µM, 0.333 µM, 0.316 µM and 0.438 µM.
As to `CCNC(=O)Cc1nc2cnc3[nH]ccc3c2n1C1CCCOC1` (racemic) [Example 962, N-Ethyl-2-[1-(tetrahydro-pyran-3-yl)-1,6-dihydro-1,3,5,6-tetraaza-as-indacen-2-yl]-acetamide], the Ki at JAK1 is 0.0358 µM; on JAK2, 0.208 µM; at JAK3, 0.177 µM; at TYK2 it was 0.399 µM.
`CC(C)NC(=O)Cc1nc2cnc3[nH]ccc3c2n1C1CCCOC1` (racemic) [Example 963, N-Isopropyl-2-[1-(tetrahydro-pyran-3-yl)-1,6-dihydro-1,3,5,6-tetraaza-as-indacen-2-yl]-acetamide]: the Ki was 0.0432 µM at JAK1, 0.19 µM at JAK2, 0.119 µM at JAK3 and 0.373 µM on TYK2.
Consider `O=C(Cc1nc2cnc3[nH]ccc3c2n1C1CCCOC1)NC1CCC1` (racemic) [Example 965, N-Cyclobutyl-2-[1-(tetrahydro-pyran-3-yl)-1,6-dihydro-1,3,5,6-tetraaza-as-indacen-2-yl]-acetamide], for which the Ki on JAK1 worked out at 0.0316 µM; on JAK2, 0.16 µM; on JAK3 it was 0.107 µM; at TYK2 it was 0.306 µM.
The like results for `CC(C)CNC(=O)Cc1nc2cnc3[nH]ccc3c2n1C1CCCOC1` (racemic) [Example 966, N-Isobutyl-2-[1-(tetrahydro-pyran-3-yl)-1,6-dihydro-1,3,5,6-tetraaza-as-indacen-2-yl]-acetamide] were, in that order, 0.038 µM, 0.256 µM, 0.196 µM and 0.478 µM.
As for `O=C(Cc1nc2cnc3[nH]ccc3c2n1C1CCCOC1)N1CCC1` (racemic) [Example 967, 1-Azetidin-1-yl-2-[1-(tetrahydro-pyran-3-yl)-1,6-dihydro-1,3,5,6-tetraaza-as-indacen-2-yl]-ethanone], the Ki was 0.131 µM on JAK1, 0.776 µM at JAK2, 0.484 µM on JAK3 and 1.06 µM on TYK2.
As to `O=C(Cc1nc2cnc3[nH]ccc3c2n1C1CCCOC1)N1CCCC1` (racemic) [Example 968, 1-Pyrrolidin-1-yl-2-[1-(tetrahydro-pyran-3-yl)-1,6-dihydro-1,3,5,6-tetraaza-as-indacen-2-yl]-ethanone], the Ki on JAK1 came out at 0.131 µM; on JAK2, 0.891 µM; on JAK3 it was 0.361 µM; on TYK2, 1.17 µM.
Regarding `CN(CCO)C(=O)Cc1nc2cnc3[nH]ccc3c2n1C1CCCOC1` (racemic) [Example 969, N-(2-Hydroxy-ethyl)-N-methyl-2-[1-(tetrahydro-pyran-3-yl)-1,6-dihydro-1,3,5,6-tetraaza-as-indacen-2-yl]-acetamide], the Ki worked out at 0.171 µM at JAK1, 1.09 µM at JAK2, 0.511 µM on JAK3 and 1.14 µM on TYK2.
The corresponding values for `CN(C)C(=O)CNC(=O)Cc1nc2cnc3[nH]ccc3c2n1C1CCCOC1` (racemic) [Example 970, N-Dimethylcarbamoylmethyl-2-[1-(tetrahydro-pyran-3-yl)-1,6-dihydro-1,3,5,6-tetraaza-as-indacen-2-yl]-acetamide] are 0.0343 µM, 0.124 µM, 0.206 µM and 0.245 µM.
The like results for `O=C(Cc1nc2cnc3[nH]ccc3c2n1C1CCCOC1)N1CC(F)(F)C1` (racemic) [Example 971, 1-(3,3-Difluoro-azetidin-1-yl)-2-[1-(tetrahydro-pyran-3-yl)-1,6-dihydro-1,3,5,6-tetraaza-as-indacen-2-yl]-ethanone] were, in that order, 0.114 µM, 0.564 µM, 0.352 µM and 0.799 µM.
The corresponding values for `O=C(Cc1nc2cnc3[nH]ccc3c2n1C1CCCOC1)NC1CCC(F)(F)CC1` (racemic) [Example 972, N-(4,4-Difluoro-cyclohexyl)-2-[1-(tetrahydro-pyran-3-yl)-1,6-dihydro-1,3,5,6-tetraaza-as-indacen-2-yl]-acetamide] are 0.0276 µM, 0.113 µM, 0.0891 µM and 0.194 µM.
`O=C(Cc1nc2cnc3[nH]ccc3c2n1C1CCCOC1)NCC(F)F` (racemic) [Example 973, N-(2,2-Difluoro-ethyl)-2-[1-(tetrahydro-pyran-3-yl)-1,6-dihydro-1,3,5,6-tetraaza-as-indacen-2-yl]-acetamide]: the Ki stood at 0.023 µM at JAK1, 0.152 µM on JAK2, 0.13 µM on JAK3 and 0.215 µM on TYK2.
The like results for `O=C(Cc1nc2cnc3[nH]ccc3c2n1C1CCCOC1)NC1CCCC1` (racemic) [Example 974, N-Cyclopentyl-2-[1-(tetrahydro-pyran-3-yl)-1,6-dihydro-1,3,5,6-tetraaza-as-indacen-2-yl]-acetamide] were, in that order, 0.0256 µM, 0.11 µM, 0.0746 µM and 0.194 µM.
The like results for `O=C(Cc1nc2cnc3[nH]ccc3c2n1C1CCCOC1)NCCn1ccnc1` (racemic) [Example 975, N-(2-Imidazol-1-yl-ethyl)-2-[1-(tetrahydro-pyran-3-yl)-1,6-dihydro-1,3,5,6-tetraaza-as-indacen-2-yl]-acetamide] were, in that order, 0.0441 µM, 0.206 µM, 0.211 µM and 0.406 µM.
For `O=C(Cc1nc2cnc3[nH]ccc3c2n1C1CCCOC1)N1CCN(CCO)CC1` (racemic) [Example 976, 1-[4-(2-Hydroxy-ethyl)-piperazin-1-yl]-2-[1-(tetrahydro-pyran-3-yl)-1,6-dihydro-1,3,5,6-tetraaza-as-indacen-2-yl]-ethanone], the Ki is 0.0321 µM at JAK1, 0.405 µM at JAK2, 0.208 µM on JAK3 and 0.299 µM on TYK2.
Turning to `CC(=O)N1CCN(C(=O)Cc2nc3cnc4[nH]ccc4c3n2C2CCCOC2)CC1` (racemic) [Example 977, 1-(4-Acetyl-piperazin-1-yl)-2-[1-(tetrahydro-pyran-3-yl)-1,6-dihydro-1,3,5,6-tetraaza-as-indacen-2-yl]-ethanone], the Ki is 0.0282 µM at JAK1, 0.363 µM on JAK2, 0.195 µM at JAK3 and 0.21 µM on TYK2.
